# According to paper PMC3548273, “Rodent Thyroid, Liver, and Fetal Testis Toxicity of the Monoester Metabolite of Bis-(2-ethylhexyl) Tetrabromophthalate (TBPH), a Novel Brominated Flame Retardant Present in Indoor Dust” (Environmental Health Perspectives, 2012):
# Tests used:
# Assay type in all cases: cell-based
# PPARα [1] = molecular target: T1, PPARα (Mus musculus, UniProt P23204); assay: AOX target gene expression (qPCR) in FAO-PPARα cells at […]; conditions: fao-pparalpha cells, 0.1 µM
# T1 construct: gene Ppara; FAO cells stably transfected with mouse PPARα
# T1 sequence (P23204 1-468): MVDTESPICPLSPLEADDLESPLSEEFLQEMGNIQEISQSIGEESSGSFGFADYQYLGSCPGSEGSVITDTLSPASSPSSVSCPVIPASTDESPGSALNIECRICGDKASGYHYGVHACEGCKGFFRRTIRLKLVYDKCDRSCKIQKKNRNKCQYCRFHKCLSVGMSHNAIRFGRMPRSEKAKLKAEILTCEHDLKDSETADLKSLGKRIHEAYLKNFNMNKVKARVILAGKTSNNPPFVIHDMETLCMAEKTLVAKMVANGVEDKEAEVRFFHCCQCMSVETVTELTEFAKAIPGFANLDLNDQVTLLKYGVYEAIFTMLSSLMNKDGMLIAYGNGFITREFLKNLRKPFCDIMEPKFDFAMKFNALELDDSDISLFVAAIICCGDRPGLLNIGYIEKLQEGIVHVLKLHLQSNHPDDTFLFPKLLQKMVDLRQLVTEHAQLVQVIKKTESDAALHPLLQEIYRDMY
# PPARα [2] = molecular target: T1, PPARα; assay: as above; conditions: read-out: AOX target gene expression (qPCR) in FAO-PPARα cells at 100 μM
# PPARγ [3] = molecular target: T2, PPARγ (Mus musculus, UniProt P37238); assay: FABP4 target gene expression (qPCR) in NIH 3T3 L1 cells at […]; conditions: NIH3T3, read-out: FABP4 target gene expression (qPCR) in NIH 3T3 L1 cells at 100 μM
# T2 construct: gene Pparg
# T2 sequence (P37238 1-505): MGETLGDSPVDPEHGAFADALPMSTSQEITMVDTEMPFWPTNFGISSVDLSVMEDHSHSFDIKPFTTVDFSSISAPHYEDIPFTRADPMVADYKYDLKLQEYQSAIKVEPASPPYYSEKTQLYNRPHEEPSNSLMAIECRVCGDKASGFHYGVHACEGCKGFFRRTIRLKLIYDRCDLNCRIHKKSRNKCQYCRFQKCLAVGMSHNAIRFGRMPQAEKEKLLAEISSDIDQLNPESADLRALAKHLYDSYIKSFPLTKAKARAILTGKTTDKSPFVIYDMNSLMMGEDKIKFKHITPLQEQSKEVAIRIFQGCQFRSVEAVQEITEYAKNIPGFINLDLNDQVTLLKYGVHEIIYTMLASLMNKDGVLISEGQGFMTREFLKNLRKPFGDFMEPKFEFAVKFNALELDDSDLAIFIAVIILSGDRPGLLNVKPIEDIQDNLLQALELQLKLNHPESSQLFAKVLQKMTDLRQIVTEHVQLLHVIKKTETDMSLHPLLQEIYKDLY
# PPARγ [4] = molecular target: T2, PPARγ; assay: FABP4 target gene expression and lipid accumulation in NIH 3T3 L1 cells, with PPARγ shRNA knockdown
# PPARα [5] = molecular target: T1, PPARα; assay: AOX target gene expression (qPCR) in FAO-PPARα cells
# PPARγ [6] = molecular target: T2, PPARγ; assay: FABP4 target gene expression (qPCR) in NIH 3T3 L1 cells at […]; conditions: NIH3T3, read-out: FABP4 target gene expression (qPCR) in NIH 3T3 L1 cells at 100 nM
compound,measurement,setting,value
"CC(C)(Sc1ccc(CCN(CCCCC2CCCCC2)C(=O)NC2CCCCC2)cc1)C(=O)O [GW7647, 2-(4-(2-(1-(cyclohexanebutyl)-3-cyclohexylureido)ethyl)phenylthio)-2-methylpropionic acid]",AOX target gene expression (qPCR) in FAO-PPARα cells at 100 nM,PPARα [1],4.9 ± 0.5 fold increase
CCCCC(CC)COC(=O)c1ccccc1C(=O)O (stereo not drawn) [MEHP],fold induction at 100 µM,PPARα [2],5.4 ± 0.6
same,fold induction at 100 µM,PPARγ [3],11.5 ± 2.7
CCCCC(CC)COC(=O)c1c(Br)c(Br)c(Br)c(Br)c1C(=O)O (stereo not drawn) [TBMEHP],"FABP4 target gene expression and lipid accumulation in NIH 3T3 L1 cells, with PP",PPARγ [4],"TBMEHP-induced expression of the PPARγ target gene, FABP4, was significantly impaired in PPARγ-shRNA transduced cells"
same,AOX target gene expression (qPCR) in FAO-PPARα cells,PPARα [5],"TBMEHP, but not TBPH, significantly up-regulated the expression of both FABP4 and AOX mRNA"
CN(CCOc1ccc(CC2SC(=O)NC2=O)cc1)c1ccccn1 (stereo not drawn) [rosiglitazone],fold induction at 0.1 µM,PPARγ [6],6 ± 1.4
